From ChEMBL document CHEMBL3638723, “Isoxazolo-pyridine derivatives” (2014) come the findings set out here.

The structures appear in SMILES notation.

The assay concerns the target T1, Gamma-aminobutyric acid receptor subunit alpha-5 (Homo sapiens, UniProt P31644).
T1 sequence (P31644 whole entry): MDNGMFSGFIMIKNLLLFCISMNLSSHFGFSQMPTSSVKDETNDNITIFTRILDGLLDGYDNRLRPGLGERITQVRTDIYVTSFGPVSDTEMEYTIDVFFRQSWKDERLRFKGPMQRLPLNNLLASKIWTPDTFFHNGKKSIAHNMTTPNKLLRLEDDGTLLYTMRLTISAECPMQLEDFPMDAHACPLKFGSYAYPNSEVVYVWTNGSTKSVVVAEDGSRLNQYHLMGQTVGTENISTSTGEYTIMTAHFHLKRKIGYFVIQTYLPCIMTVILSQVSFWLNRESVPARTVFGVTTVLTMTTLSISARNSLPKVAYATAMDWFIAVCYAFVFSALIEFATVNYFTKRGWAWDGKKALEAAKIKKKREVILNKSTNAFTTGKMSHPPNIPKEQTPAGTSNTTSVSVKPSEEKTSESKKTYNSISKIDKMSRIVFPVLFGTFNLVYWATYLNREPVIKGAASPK
Put plainly: Radioligand Binding Assay: Radioligand binding assays were carried out in a volume of […] (96-well plates) which contained […] of cell memebranes, [3H]flumazenil at a concentration of 1 nM for α1, α2, α3 subunits and 0.5 nM for α5 subunits and the test compound in the range of 10-10−3x10−6 M. Nonspecific binding was defined by 10−5 M diazepam and typically represented less than 5% of the total binding. Assays were incubated to equilibrium for 1 hour at 4 C. and harvested onto GF/C uni-filters (Packard) by filtration using a Packard harvester and washing with ice-cold wash buffer (50 mM Tris; pH 7.5). After drying, filter-retained radioactivity was detected by liquid scintillation counting.

One may read the Ki as the dissociation constant of the complex between target and ligand, obtained from inhibition or displacement. As to `Cc1onc(-c2ccccc2)c1COc1ccc(C(=O)N2CC3(COC3)C2)cn1`, the Ki was 15.1 nM.
For the compound `Cc1onc(-c2ccc(Cl)cn2)c1COc1ccc(C(=O)N2CCSCC2)cn1`, the Ki came to 0.4 nM.
Consider `Cc1onc(-c2ccc(Cl)cc2)c1COc1ccc(C(=O)N2CCOCC2)cn1`, for which the Ki was determined as 5.4 nM.
In the case of `Cc1onc(-c2ccccn2)c1COc1ccc(C(=O)N2CCOCC2)cn1`, the Ki turned out to be 14.6 nM.
Consider `Cc1onc(-c2ccccc2)c1COc1ccc(C(=O)NC(C)C)cn1`, for which the Ki came out at 1.3 nM.
For the compound `Cc1onc(-c2ccccc2)c1COc1ccc(C(=O)N2CCn3cnnc3C2)cn1`, the Ki turned out to be 29.9 nM.
